How the values were obtained:
[1] = test system: differentiated L6-myotubes; experiment: cAMP production relative to isoprenaline (Biological example 2 of WO 2019/053427); format: cell-based; conditions: compound at 10 μM, activity relative to isoproterenol at 10 μM; for Emax at 10 µM: 0.25 h
Procedure, shortened: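 Values are cAMP levels relative to isoprenaline at equal concentration (final 1×10^−5 M for both). Stimulation lasted 15 min in differentiated L6 myotubes, using HBSS buffer (pH 7.4) containing 1 mM IBMX, 5 mM HEPES and 1% BSA.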

[2] = test system: differentiated L6-myotubes; experiment: Glucose uptake screen (Biological example 1 of WO 2019/053427); format: cell-based; conditions: compound at 10 μM, activity relative to isoproterenol at 10 μM; for Emax at 10 µM: read-out: Biological example 1 of WO 2019/053427 (GU)
Procedure, shortened: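 Uptake was read out as ^3H-2-deoxyglucose (50 nM, 10 min) radioactivity in NaOH lysates. Beforehand, overnight-starved, differentiated L6 myotubes received compound at 1×10^−5 M with ICI-118551 present for 1 h 40 min, followed by fresh agonist for a further 20 min in glucose-free medium.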

| SMILES | Emax at 10 µM [1] | Emax at 10 µM [2] | Biological example 1 of WO 2019/053427 (GU) [2] | Biological example of WO 2019/053427 (cAMP) [1] |
| --- | --- | --- | --- | --- |
| CCC[C@H]1CCC[C@H]([C@@H](O)c2cccc(O)c2)N1 [Compound 155, (S)-[(2R,6S)-6-propyl-2-piperidyl](m-hydroxyphenyl)methanol] | < 25% | < 25% |  |  |
| CC1(C)CC[C@H]([C@@H](O)c2cncc(F)c2)N1 [Compound 156, (S)-[(R)-5,5-dimethyl-2-pyrrolidinyl](5-fluoro-3-pyridyl)methanol] | < 25% | < 25% |  |  |
| CC1(C)CC[C@H]([C@H](O)c2cncc(F)c2)N1 [Compound 157, (R)-[(R)-5,5-dimethyl-2-pyrrolidinyl](5-fluoro-3-pyridyl)methanol] | < 25% | > 75% |  |  |
| CCCC1(CCC)CC[C@H]([C@@H](O)c2cccc(F)c2)N1 [Compound 158, (S)-[(R)-5,5-dipropyl-2-pyrrolidinyl](m-fluorophenyl)methanol] | < 25% | < 25% |  |  |
| CCCC1(CCC)CC[C@H]([C@H](O)c2cccc(F)c2)N1 [Compound 159, (R)-[(R)-5,5-dipropyl-2-pyrrolidinyl](m-fluorophenyl)methanol] | < 25% | 50 to 75% |  |  |
| CCC[C@@H]1CC[C@H]([C@H](O)c2cncc(F)c2)N1 [Compound 160, (R)-[(2R,5R)-5-propyl-2-pyrrolidinyl](5-fluoro-3-pyridyl)methanol] | < 25% |  | +++ (more than 75% of that of isoproterenol at 10 μM) |  |
| CCC[C@@H]1CC[C@H]([C@H](O)c2cncc(F)c2)N1 [Compound 161] |  |  | + (between 50 and 25%) | − (less than 25%) |
| CC1(C)CCC[C@H]([C@H](O)c2ccccc2Cl)N1 [Compound 162, (R)-[(R)-6,6-dimethyl-2-piperidyl](o-chlorophenyl)methanol] | < 25% | 25 to 50% |  |  |
| CC1(C)CCC[C@H]([C@@H](O)c2ccccc2Cl)N1 [Compound 163, (S)-[(R)-6,6-dimethyl-2-piperidyl](o-chlorophenyl)methanol] | < 25% | > 75% |  |  |
| CC1(C)CCC[C@H]([C@@H](O)c2cccc(Cl)c2)N1 [Compound 164, (S)-[(R)-6,6-dimethyl-2-piperidyl](m-chlorophenyl)methanol] | < 25% | 50 to 75% |  |  |
| CC1(C)CCC[C@H]([C@H](O)c2cccc(Cl)c2)N1 [Compound 165, (R)-[(R)-6,6-dimethyl-2-piperidyl](m-chlorophenyl)methanol] | < 25% | 25 to 50% |  |  |
| CC1(C)CC[C@H]([C@@H](O)c2cncc(O)c2)N1 [Compound 166, 5-{(S)-[(R)-5,5-dimethyl-2-pyrrolidinyl]hydroxymeth-yl}-3-pyridinol] | < 25% | 25 to 50% |  |  |
| CC1(C)CC[C@H]([C@H](O)c2cncc(O)c2)N1 [Compound 167, 5-{(R)-[(R)-5,5-dimethyl-2-pyrrolidinyl]hydroxymeth-yl}-3-pyridinol] | < 25% | 50 to 75% |  |  |
| O[C@H](c1cccc(F)c1)[C@H]1CCC2(CCCC2)N1 [Compound 168] | 25 to 50% | 50 to 75% |  |  |
| O[C@@H](c1cccc(F)c1)[C@H]1CCC2(CCCC2)N1 [Compound 169, (S)-{(R)-1-aza-2-spiro[4.4]nonyl}(m-fluorophenyl)methanol] | < 25% | < 25% |  |  |
| O[C@H](c1cccc(F)c1)[C@H]1CCC2(CC2)N1 [Compound 170, (R)-{(R)-4-aza-5-spiro[2.4]heptyl}(m-fluorophenyl)methanol] | < 25% | 50 to 75% |  |  |
| O[C@@H](c1cccc(F)c1)[C@H]1CCC2(CC2)N1 [Compound 171, (S)-{(R)-4-aza-5-spiro[2.4]heptyl}(m-fluorophenyl)methanol] | < 25% | 25 to 50% |  |  |
| CC1(C)CC[C@H]([C@@H](O)c2ccc(F)cc2)N1 [Compound 172, (S)-[(R)-5,5-dimethyl-2-pyrrolidinyl](p-fluorophenyl)methanol] | < 25% | < 25% |  |  |
| CC1(C)CC[C@H]([C@H](O)c2ccc(F)cc2)N1 [Compound 173, (R)-[(R)-5,5-dimethyl-2-pyrrolidinyl](p-fluorophenyl)methanol] | < 25% | 50 to 75% |  |  |
| CC1(C)CC[C@H]([C@@H](O)c2ccccc2F)N1 [Compound 174, (S)-[(R)-5,5-dimethyl-2-pyrrolidinyl](o-fluorophenyl)methanol] | < 25% | < 25% |  |  |

| SMILES | Emax at 10 µM [1] | Emax at 10 µM [2] | Biological example 1 of WO 2019/053427 (GU) [2] | Biological example of WO 2019/053427 (cAMP) [1] |
| --- | --- | --- | --- | --- |
| CC1(C)CC[C@H]([C@H](O)c2ccccc2F)N1 [Compound 175, (R)-[(R)-5,5-dimethyl-2-pyrrolidinyl](o-fluorophenyl)methanol] | 25 to 50% | > 75% |  |  |
| CC1(C)CCC[C@H]([C@@H](O)c2ccccc2F)N1 [Compound 176, (S)-[(R)-6,6-dimethyl-2-piperidyl](o-fluorophenyl)methanol] | 25 to 50% | > 75% |  |  |
| CC1(C)CCC[C@H]([C@H](O)c2ccccc2F)N1 [Compound 177, (R)-[(R)-6,6-dimethyl-2-piperidyl](o-fluorophenyl)methanol] | < 25% | 50 to 75% |  |  |
| CC12CCC([C@@H](O)c3cccc(F)c3)(CC1)N2 [Compound 178, (S)-(m-fluorophenyl)(4-methyl-7-azabicyclo[2.2.1]hept-1-yl)methanol] | < 25% | 25 to 50% |  |  |
| CC12CCC([C@H](O)c3cccc(F)c3)(CC1)N2 [Compound 179, (R)-(m-fluoropehnyl)(4-methyl-7-azabicyclo[2.2.1]hept-1-yl)methanol] | < 25% | 50 to 75% |  |  |
| CC12CCC([C@@H](O)c3ccccc3F)(CC1)N2 [Compound 180, (S)-(o-fluorophenyl)(4-methyl-7-azabicyclo[2.2.1]hept-1-yl)methanol] | < 25% | > 75% |  |  |
| CC12CCC([C@H](O)c3ccccc3F)(CC1)N2 [Compound 181, (R)-(o-fluorophenyl)(4-methyl-7-azabicyclo[2.2.1]hept-1-yl)methanol] | < 25% | > 75% |  |  |
| CCCC12CCC([C@@H](O)c3cccc(F)c3)(CC1)N2 [Compound 182, (S)-(m-fluorophenyl)(- propyl-7-azabicyclo[2.2.1]hept-1-yl)methanol] | < 25% | < 25% |  |  |
| CCCC12CCC([C@H](O)c3cccc(F)c3)(CC1)N2 [Compound 183, (R)-(m-fluorophenyl)(4-propyl-7-azabicyclo[2.2.1]hept-1-yl)methanol] | 25 to 50% | 50 to 75% |  |  |
| CC12CCC([C@@H](O)c3cncc(F)c3)(CC1)N2 [Compound 184, (S)-(5-fluoro-3-pyridyl)(4-methyl-7-azabicyclo[2.2.1]hept-1-yl)methanol] | < 25% | 50 to 75% |  |  |
| CC12CCC([C@H](O)c3cncc(F)c3)(CC1)N2 [Compound 185, (R)-(5-fluoro-3-pyridyl)(4-methyl-7-azabicyclo[2.2.1]hept-1-yl)methanol] | < 25% | > 75% |  |  |
| CC12CC(C1)[C@H]([C@H](O)c1cccc(F)c1)N2 [Compound 186, (R)-{(R)-1-methyl-2-azabicyclo[2.1.1]hex-3-yl}(m-fluorophenyl)methanol] | 50 to 75% | > 75% |  |  |
| CC12CC(C1)[C@H]([C@@H](O)c1cccc(F)c1)N2 [Compound 187, (S)-{(R)-1-methyl-2-azabicyclo[2.1.1]hex-3-yl}(m-fluorophenyl)methanol] | < 25% | 25 to 50% |  |  |
| CC12CC(C1)[C@@H]([C@H](O)c1cccc(F)c1)N2 [Compound 188, (R)-{(S)-1-methyl-2-azabicyclo[2.1.1]hex-3-yl}(m-fluorophenyl)methanol] | < 25% | < 25% |  |  |
| CC12CC(C1)[C@@H]([C@@H](O)c1cccc(F)c1)N2 [Compound 189, (S)-{(S)-1-methyl-2-azabicyclo[2.1.1]hex-3-yl}(m-fluorophenyl)methanol] | < 25% | 50 to 75% |  |  |
| CC1(C)CCC[C@@H]([C@H](O)c2cccc(F)c2)N1 [Compound 190, (R)-[(S)-6,6-dimethyl-2-piperidyl](m-fluorophenyl)methanol] | < 25% | > 75% |  |  |
| CC1(C)CCC[C@@H]([C@@H](O)c2cccc(F)c2)N1 [Compound 191, (S)-[(S)-6,6-dimethyl-2-piperidyl](m-fluorophenyl)methanol] | < 25% | 25 to 50% |  |  |
| CC1(C)CCC[C@@H]([C@@H](O)c2ccccc2F)N1 [Compound 192, (S)-[(S)-6,6-dimethyl-2-piperidyl](o-fluorophenyl)methanol] | < 25% | 25 to 50% |  |  |
| CC1(C)CCC[C@@H]([C@H](O)c2ccccc2F)N1 [Compound 193, (R)-[(S)-6,6-dimethyl-2-piperidyl](o-fluorophenyl)methanol] | 25 to 50% | > 75% |  |  |
| CC12CCC([C@@H](O)c3ccccc3Cl)(CC1)N2 [Compound 194, (S)-(o-chlorophenyl)(4-methyl-7-azabicyclo[2.2.1]hept-1-yl)methanol] | < 25% | > 75% |  |  |

— US20260256751A1, “COMBINATION OF BETA-2-ADRENERGIC RECEPTOR AGONISTS AND GLP-1 RECEPTOR AGONISTS FOR USE IN TREATING HYPERGLYCAEMIA” (ATROGI AB, priority 2023, published 2026)
